Structures are written as SMILES. Where “and” joins values, the source holds several entries; their conditions need not be identical. Equal values may be shown once.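 Each compound was tested at five concentrations against cells in 96-well plates for 48 hours. Here, GI50 denotes the concentration required for 50% inhibition of growth. TGI: concentration producing complete growth inhibition.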

Among the data in PubChem BioAssay (NCI) are TGI and GI50 values, retold here.

What all share (experiment): NCI anticancer screen, dose series, 48 h
Experiment [1] deals with U251 CNS.
Experiment [2] concerns SN12C renal.
The test system of experiment [3] is COLO 205 colon.
The subject of experiment [4] is SF-295 CNS.
Experiment [5] relates to SK-MEL-5 melanoma.
The test system of experiment [6] is EKVX NSCLC.
Experiment [7] concerns RPMI-8226 leukemia.
Experiment [8] deals with MDA-MB-231 breast.
Experiment [9] relates to SR leukemia.

With `CC1=C(C(=O)Nc2ccc([N+](=O)[O-])cc2)C(c2ccccc2O)C(C(=O)Nc2ccc([N+](=O)[O-])cc2)=C(C)N1`, the TGI in [1] came to 61.1 µM; in experiment [2] it was 55.5 µM; in experiment [3] it was 40.8 µM; in [4] it was 72.2 µM; in experiment [5], 31.8 µM; in experiment [6], 84.9 µM. Besides, the TGI in [7] is 53.4 µM.
`CCCCN=C(NC#N)N(Cc1ccccc1)Cc1ccccc1`: the TGI in experiment [1] was determined as 81.3 µM; in [2], 82 µM; in experiment [3], 32.5 µM; in experiment [4], 63.2 µM; in experiment [5] it was 26.1 µM; in [6], 74.9 µM. In experiment [7], this molecule yielded a TGI of 40.8 µM.
On to `CC1(C)CCC[C@]2(C)c3cc(O)ccc3CC[C@@H]12`, for which the GI50 in experiment [1] is 14.6 µM; in experiment [8] it was 16.2 µM; in experiment [2], 17.5 µM; in [3] it was 20.4 µM; in experiment [4], 20.6 µM; in experiment [5], 11.3 µM. For the same molecule, the GI50 was 21.5 µM in experiment [6], 8.72 µM in experiment [9] and 12.3 µM in experiment [7]. The TGI in [1] is 29.1 µM; in experiment [8], 30.4 µM; in [2], 31.3 µM; in [3], 46 µM; in [4], 44.6 µM; in experiment [5] it was 23.4 µM. Moreover, the TGI in [6] was 36.7 µM; in experiment [9], greater than 100 µM; in experiment [7] it was 30.4 µM.
For `CN(C(=O)C12C3(C(=O)C(C)(C)C)C4C5(C#N)C3C1(C(=O)C(C)(C)C)C5C42C(=O)C(C)(C)C)C(C)(C)C` (stereo unspecified), the TGI in experiment [1], in [2], in experiment [3], in [4], in experiment [5] and in experiment [6] was greater than 50 µM each time. The same molecule registered a TGI in experiment [9] greater than 50 µM.
For `O=c1cc(-c2ccccc2)[nH]c2c(Cl)cccc12`, the TGI was greater than 100 µM in [1]; greater than 100 µM in [2]; greater than 100 µM in experiment [3]; 58.5 µM in [4]; 45.4 µM in experiment [5]; greater than 100 µM in experiment [6]. Besides, the TGI in [9] and in experiment [7] was greater than 100 µM throughout.
Take `O=C(O)C(C(=O)C(=O)C(C(=O)O)c1ccc(Cl)cc1)c1ccc(Cl)cc1` (stereo unspecified): the TGI in experiment [1] stood at 12 µM; in [2] it was 10.8 µM; in experiment [3], 18.8 µM; in [4] it was 20.8 µM; in [6] it was 13.3 µM; in experiment [9] it was 6 µM. For the same molecule, in experiment [7], the TGI was 5.91 µM.
As to `O=[P+](O)c1cc2ccccc2c2ccccc12`, the TGI in [1], in experiment [2], in [3], in experiment [4], in experiment [5] and in [6] was greater than 100 µM in each case. The TGI in experiment [7] was greater than 100 µM.
On to `COC(=O)[C@@]1(O)CC(C)C=C1C=O` (stereo partly specified), for which the TGI in experiment [1] is 38.4 µM; in [2], greater than 100 µM; in [3] it was greater than 100 µM; in experiment [4] it was greater than 100 µM; in experiment [5], greater than 100 µM; in experiment [6], greater than 100 µM. In addition, the TGI in experiment [9] and in experiment [7] was greater than 100 µM each time.
For the molecule `CCCCCCCCC(O)C#CC(N)=O` (stereo unspecified), the TGI is 20.9 µM in [1]; 23.8 µM in experiment [2]; greater than 100 µM in experiment [4]; 24.3 µM in experiment [5]; 23.6 µM in experiment [6]; 52.9 µM in experiment [9]. Further, the TGI in [7] is 41.1 µM.
As to `COc1ccc(OC)c(NCC#N)c1`, the TGI in experiment [1], in experiment [2], in experiment [3], in experiment [4], in experiment [5] and in experiment [6] was greater than 100 µM each time. In [7], this molecule showed a TGI greater than 100 µM.
With `O=C1[C@H]2ON(c3ccccc3)C(c3ccccc3F)[C@H]2C(=O)N1c1ccc(Cc2ccc(N3C(=O)[C@@H]4ON(c5ccccc5)C(c5ccccc5F)[C@@H]4C3=O)cc2)cc1` (stereo partly specified), the TGI in experiment [1], in experiment [2], in experiment [3], in experiment [4], in experiment [5] and in experiment [7] was greater than 100 µM throughout.
`CC(=O)OC(C)(C)/C=C/C(=O)[C@](C)(O)[C@H]1[C@H](O)C[C@@]2(C)[C@@H]3CC=C4[C@@H](C[C@H](O)C(=O)C4(C)C)[C@]3(CO)C(=O)C[C@]12C`: the GI50 in [1] was 0.267 µM; in experiment [2] it was 0.368 µM; in [3], 0.159 µM; in experiment [5], 0.171 µM; in experiment [6], 0.432 µM; in experiment [9] it was 0.462 µM. Further, the GI50 in experiment [7] is 0.356 µM. Also, the TGI in experiment [1] was 0.592 µM and 1.52 µM; in [2], 17.4 µM; in [4], 0.772 µM and 1.64 µM; in experiment [5] it was 0.894 µM and 1.33 µM; in experiment [6], 0.903 µM and 7.31 µM; in experiment [9] it was 29.4 µM. The molecule also registered a TGI in experiment [7] of 2.28 µM.
`CCOC(=O)[C@H]1CSC[C@@H](C(=O)OC)N1`: the TGI in experiment [1], in [2], in [3], in experiment [4], in [5] and in [6] was greater than 100 µM each time. For the same molecule, the TGI in experiment [9] and in [7] was greater than 100 µM each time.
Turning to `CC(C)N1CCC2(CC1)NNc1ncccc1-n1cccc12`, the TGI in experiment [1], in experiment [2], in [3], in [4], in experiment [5] and in [6] was greater than 100 µM throughout. The TGI in experiment [7] is greater than 100 µM.
Regarding `O=c1cc(-c2ccccc2)nc(/C=C(\O)c2ccncc2)n1-c1ccccc1`, the TGI in experiment [1], in experiment [2], in [3], in experiment [4], in [5] and in experiment [6] was greater than 100 µM in each case.
Regarding `COC1=C2C[C@H](O)C(C)C[C@@]2(OC)OC1=O` (stereo partly specified), the TGI in [1], in experiment [2], in [3], in experiment [4], in experiment [5] and in experiment [7] was greater than 100 µM throughout.
Turning to `O=C1C2CC=CCC2C(=O)C12CCc1ccccc12` (stereo unspecified), the TGI in experiment [1], in experiment [2], in experiment [3], in [4] and in experiment [6] was greater than 100 µM throughout.
As to `NC(CC(=O)Nc1ccc(Cl)cc1)=Nc1ccccc1`, the TGI in experiment [1], in experiment [2], in [3], in experiment [4], in [5] and in [6] was greater than 100 µM throughout. For the same molecule, the TGI in experiment [9] was greater than 100 µM.
Take `CCOc1ccccc1N1C(=O)C(=O)C(c2nc3ccccc3o2)/C(=N\N)C1=O` (stereo unspecified): the TGI in experiment [1], in experiment [2], in [3], in experiment [4], in experiment [5] and in experiment [6] was greater than 100 µM each time. Further, in experiment [7], the TGI is greater than 100 µM.
Consider `CCO/C=C1\N=C(C(Cl)c2ccccc2)OC1=O` (stereo unspecified), for which the TGI in experiment [2], in [3], in experiment [4], in experiment [5], in experiment [6] and in experiment [7] was greater than 100 µM throughout.
As to `C/C(CC(=O)Nc1ccc(Cl)cc1)=N\NC(=O)C[n+]1ccccc1`, the TGI in experiment [1], in experiment [3], in experiment [4], in experiment [5], in experiment [6] and in [7] was greater than 100 µM each time.
For `O=c1nc(NC(c2ccccc2)(c2ccccc2)c2ccccc2)ccn1CCO`, the TGI in experiment [1], in experiment [2], in experiment [3], in experiment [4], in experiment [6] and in experiment [9] was greater than 100 µM in each case. This molecule registered a TGI in experiment [7] greater than 100 µM.
`CSc1nc(SC)c2c(C(N)=S)[nH]nc2n1`: the TGI is 46.1 µM in experiment [1]; greater than 100 µM in experiment [2]; 35.7 µM in experiment [3]; 48.1 µM in experiment [4]; 34.1 µM in experiment [5]; 56 µM in experiment [6]. Further, the TGI was determined as 87.1 µM in experiment [9] and 67.8 µM in experiment [7].
Take `COc1cc(C=O)c(-c2cc3c(cc2C2(C)OCCS2)OCO3)c(OC)c1OC` (stereo unspecified): the TGI was 72 µM in [1]; 49.8 µM in [2]; 16.1 µM in [3]; 48 µM in [4]; 35.3 µM in experiment [5]; greater than 97 µM in experiment [6]. Besides, the values for the TGI in [9] and in experiment [7] were 50 µM and greater than 160 µM, respectively.
Consider `CN1CCN(C(=O)c2c(NC(=O)NS(=O)(=O)c3ccccc3)sc3c2CCCCC3)CC1`, for which the GI50 was 27.5 µM in experiment [8]; 25 µM in experiment [2]; 57.2 µM in experiment [4]; 20.5 µM in experiment [5]; 33.7 µM in experiment [6]; 27.5 µM in experiment [9]. Further, the GI50 in experiment [7] is 21.8 µM. The TGI in experiment [8] is 79.6 µM; in experiment [2] it was 63.8 µM; in [4], greater than 100 µM; in experiment [5], 40.2 µM; in experiment [6] it was 98.7 µM; in experiment [9], greater than 100 µM. The molecule further returned a TGI in experiment [7] of 64.8 µM.
As for `Nc1nc(NC2C=C(CO)C(O)C2O)c([N+](=O)[O-])c(=O)[nH]1` (stereo unspecified), the TGI in experiment [1], in experiment [2], in experiment [3], in experiment [4], in [5] and in experiment [6] was greater than 100 µM in each case. The TGI in experiment [9] was greater than 100 µM.
Take `CC(C)(O)[C@@H]1CC[C@@]2(C)CCC[C@H](O)[C@H]2C1`: the TGI in experiment [1], in experiment [2], in experiment [3], in [4], in experiment [5] and in experiment [9] was greater than 100 µM each time. Also, the TGI in [7] was greater than 100 µM.
As for `O=C(NC12CC3CC(CC(C3)C1)C2)C(=O)c1c[nH]c2ccc([N+](=O)[O-])cc12`, the TGI in experiment [1] is greater than 46.8 µM; in experiment [2], greater than 100 µM; in [3], greater than 100 µM; in experiment [4], 37.9 µM; in [5], greater than 100 µM; in experiment [6], greater than 100 µM. Moreover, the TGI in experiment [9] and in [7] was greater than 100 µM each time.
For `COc1cc2cc3c4c(cc(OC)c(OC)c4c2cc1OC)CCN3C(=O)N(C)C`, the TGI in experiment [1], in experiment [2], in experiment [3], in experiment [4], in experiment [5] and in [6] was greater than 100 µM throughout. Besides, the TGI in experiment [9] and in experiment [7] was greater than 100 µM in each case.
As for `NC(=O)C(=Cc1ccc(CP(=O)(O)O)cc1)C(N)=O`, the TGI in [1], in experiment [2], in experiment [3], in experiment [4], in experiment [5] and in experiment [6] was greater than 100 µM each time. In experiment [7], this molecule came in with a TGI greater than 100 µM.
In the case of `COC(=O)c1ccc(NC(=O)c2cc(OC)c(OC)c(OC)c2)cc1`, the TGI in experiment [4] was greater than 100 µM; in experiment [6] it was greater than 100 µM; in experiment [9], greater than 72.8 µM.
Turning to `CCC(=O)C(C)C(=O)C(=O)C(=O)OC` (stereo unspecified), the TGI in experiment [1] was greater than 68.2 µM; in [2], greater than 100 µM; in experiment [3], greater than 100 µM; in experiment [4] it was greater than 100 µM; in [5] it was greater than 100 µM; in [6] it was greater than 100 µM. Also, the TGI in experiment [9] and in [7] was greater than 100 µM throughout.
